Laboratory results as given in US8426598B2, “N-heterocyclic M1 receptor positive allosteric modulators” (Merck, Sharp & Dohme, Corp., priority 2008, dated 2013).

target: T1, acetylcholine muscarinic M1 receptor (CHOnfat/hM1 cells) (Homo sapiens, UniProt P11229); assay: muscarinic FLIPR assay: intracellular calcium, potentiation of an EC20 concentration of acetylcholine; assay type: cell-based; details: FLIPR Ca2+, 4 min preincubation, then EC20 acetylcholine (3 nM final), read-out: IP Value (inflection point)
T1 construct: expressed in transfected cells; host or cells: CHOnfat cells (CHO, Geneticin selection)
T1 sequence (P11229 1-460): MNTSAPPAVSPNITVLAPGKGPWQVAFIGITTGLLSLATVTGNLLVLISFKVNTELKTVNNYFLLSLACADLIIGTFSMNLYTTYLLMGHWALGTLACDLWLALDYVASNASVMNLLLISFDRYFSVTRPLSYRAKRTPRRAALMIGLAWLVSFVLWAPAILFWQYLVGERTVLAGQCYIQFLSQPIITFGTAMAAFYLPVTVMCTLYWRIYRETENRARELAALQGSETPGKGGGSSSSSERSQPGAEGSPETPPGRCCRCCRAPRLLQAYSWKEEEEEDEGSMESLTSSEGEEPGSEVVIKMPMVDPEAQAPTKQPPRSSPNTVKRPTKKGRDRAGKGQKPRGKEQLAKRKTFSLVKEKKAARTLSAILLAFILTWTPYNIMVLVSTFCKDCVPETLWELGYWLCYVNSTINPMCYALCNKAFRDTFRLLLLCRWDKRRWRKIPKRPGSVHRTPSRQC
Method: The assay studies the effect of one or several concentrations of test compounds on basal or acetylcholine-stimulated Ca^2+ levels using FLIPR.
Compounds are prepared and subjected to a preincubation period of 4 min. Thereafter, a single EC20 concentration of acetylcholine is added to each well (3 nM final). The intracellular Ca^2+ level of each sample is measured and compared to an acetylcholine control to determine any modulatory activity.
Cells: CHOnfat/hM1, hM2, hM3 or hM4 cells are plated 24 hr before the assay at a density of 18,000 cells/well (100 μL) in a 384 well plate. CHOnfat/hM1 and CHOnfat/hM3 Growth Medium: 90% DMEM (Hi Glucose); 10% HI FBS; 2 mM L-glutamine; 0.1 mM NEAA; Pen-Strep; and 1 mg/ml Geneticin, are added. For M2Gqi5CHOnfat and M4Gqi5CHOnfat cells, an additional 600 μg/ml hygromycin is added.
Equipment: 384 well plate, 120 μL addition plate; 96-well Whatman 2 ml Uniplate Incubator, 37° C., 5% CO2; Skatron EMBLA-384 Plate Washer; Multimek Pipetting System; Genesis Freedom 200 System; Mosquito System; Temo Nanolitre Pipetting System; and FLIPR^384 Fluorometric Imaging Plate Reader System are used.
Buffers. Assay Buffer: Hanks Balanced Salt Solution, with 20 mM Hepes, 2.5 mM Probenecid (Sigma P-8761) first dissolved in 1 N aqueous NaOH, 1% Bovine Serum Albumin (Sigma A-9647). Dye Loading Buffer: Assay Buffer plus 1% Fetal Bovine Serum and Fluo-4AM/Pluronic Acid Mixture. 2 mM Fluo-4AM ester stock in DMSO (Molecular Probes F-14202) Concentration of 2 μM in buffer for a final concentration of 1 μM in Assay. 20% Pluronic Acid Solution stock, with a concentration of 0.04% in Buffer, 0.02% in Assay.
65 μL of 2 mM Fluo-4AM are mixed with 130 μL of 20% Pluronic Acid. The resulting solution and 650 μL FBS is added to the assay buffer for a total volume of 65 mL. Positive Controls: 4-Br-A23187: 10 mM in DMSO; final concentration 10 μM. Acetylcholine: 10 mM in water, working stock at both 20 μM and 30 μM in assay buffer, final concentration of 10 μM. This is used to check the maximum stimulation of the CHOK1/hM1 cells. 20 μM (2×) acetylcholine is added in the preincubation part of the assay, and the 30 μM (3×) stock is added in the second part. (EC20)Acetylcholine: 10 mM in water, working stock of 9 nM (3×), and final concentration in assay is 3 nM. This is used after the preincubation with test compounds. Addition of the EC20 Acetylcholine to each well with a test compound will ascertain any modulator activity. 24 wells contain 3 nM Acetylcholine alone as a control.
Screening Plate: Compounds are titrated in 96-well plates (columns 2-11), 100% DMSO, started at a concentration of 15 mM (150× stock concentration), and 3-fold serial dilutions using Genesis Freedom200 System. Four 96-well plates are combined into a 384-well plate using Mosquito Nanolitre Pipetting System by transferring 1 μl of serial diluted compounds to each well, and 1 mM acetylcholine (100× stock concentration) were added as a control. Using Temo, 49 μl assay buffer is added to each well of the 384-well plate right before assay.
In a 96-well Whatman 2 ml Uniplate, 9 nM Acetylcholine (3×) is pipetted into wells corresponding to the screening compounds and into control wells. The 30 μM acetylcholine control (3×) is added into control wells and the 3× agonist plate is transferred into a 384-well plate.
Cells are washed three times with 100 μL of buffer, leaving 30 μL of buffer in each well. Using Multimek, 30 μL of Dye Loading Buffer is added into each well and incubated at 37° C., 5% CO2 for up to one hr.
After 60 min, the cells are washed three times with 100 μL of buffer, leaving 30 μL of buffer in each well. The cell plate, screening plate, and agonist addition plates are placed on the platform in the FLIPR and the door is closed. A signal test to check background fluorescence and basal fluorescence signal is performed. Laser intensity is adjusted if necessary. […]

EC50 | Compound
261 nM | O=C(O)c1cn(Cc2ccc(-n3cccn3)cc2)c2c(F)ccc(F)c2c1=O [Example 1]
58 nM | O=C(O)c1cn(Cc2ccc(-n3cnc4ccccc43)cc2)c2c(F)ccc(F)c2c1=O [Example 2]
2500 nM | O=C(O)c1cn(Cc2ccc(N3CCCC3=O)cc2)c2cccc(F)c2c1=O [Example 3, 5-Fluoro-4-oxo-1-[4-(2-oxopyrrolidin-1-yl)benzyl]-1,4-dihydroquinoline-3-carboxylic acid]
308 nM | CC(C)C(=O)Nc1ccc(Cn2cc(C(=O)O)c(=O)c3c(F)cccc32)cc1 [Example 4, 5-Fluoro-1-[4-(isobutyrylamino)benzyl]-4-oxo-1,4-dihydroquinoline-3-carboxylic acid]
102 nM | O=C(O)c1cn(Cc2ccc(-n3ccnc3)cc2)c2cccc(F)c2c1=O [Example 6]
32 nM | O=C(O)c1cn(Cc2ccc(-n3cc(CCO)cn3)cc2)c2cccc(F)c2c1=O [Example 19]
40 nM | O=C(O)c1cn(Cc2ccc(-n3cnc(-c4ccccc4)c3)cc2)c2cccc(F)c2c1=O [Example 31]
40 nM | O=C(O)c1cn(Cc2ccc(-n3ccc4ncccc43)cc2)c2cccc(F)c2c1=O [Example 36]
39 nM | O=C(O)c1cn(Cc2ccc(-n3cc(CO)cn3)cc2)c2cccc(F)c2c1=O [Example 59]
31 nM | O=C(O)c1cn(Cc2ccc(-n3cc(CF)cn3)cc2)c2cccc(F)c2c1=O [Example 62]
181 nM | Cc1nccn1-c1ccc(Cn2cc(C(=O)O)c(=O)c3cccc(F)c32)c(F)c1 [Example 109]
97 nM | O=C(O)c1cn(Cc2ccc(-n3ncc4ccccc43)cc2F)c2c(F)cccc2c1=O [Example 112]
45 nM | CC(=O)c1cn(-c2ccc(Cn3cc(C(=O)O)c(=O)c4cccc(F)c43)c(F)c2)c2ccccc12 [Example 120]
749 nM | CNc1ccc(Cn2cc(C(=O)O)c(=O)c3c(F)cccc32)cc1 [Example 149, 5-Fluoro-1-[4-(methylamino)benzyl]-4-oxo-1,4-dihydroquinoline-3-carboxylic acid]
1070 nM | CN(C)c1ccc(Cn2cc(C(=O)O)c(=O)c3c(F)cccc32)cc1 [Example 150, 1-[4-(dimethylamino)benzyl]-5-fluoro-4-oxo-1,4-dihydroquinoline-3-carboxylic acid]
78 nM | CCOC(=O)c1cn(Cc2ccc(-n3ccc(C(C)O)n3)cc2)c2cccc(F)c2c1=O (centres unmarked) [Example 151, Ethyl 5-fluoro-1-{4-[3-(1-hydroxyethyl)-1H-pyrazol-1-yl]benzyl}-4-oxo-1,4-dihydroquinolin-3-carboxylate]
41 nM | O=C(O)c1cn(Cc2ccc(-n3ccc(CF)n3)cc2)c2cccc(F)c2c1=O [Example 152, 5-Fluoro-1-{4-[3-(fluoromethyl)-1H-pyrazol-1-yl]benzyl}-4-oxo-1,4-dihydroquinoline-3-carboxylic acid]
749 nM | CCOC(=O)c1cn(Cc2ccc(-n3ccc(C(F)F)n3)cc2)c2cccc(F)c2c1=O [Example 153, Ethyl 1-{4-[3-(difluoromethyl)-1H-pyrazol-1-yl]benzyl}-5-fluoro-4-oxo-1,4-dihydroquinoline-3-carboxylate]
378 nM | CCOC(=O)c1cn(Cc2ccc(-n3cc(C#N)cn3)cc2)c2cccc(F)c2c1=O [Example 155, Ethyl 1-[4-(4-cyano-1H-pyrazol-1-yl)benzyl]-5-fluoro-4-oxo-1,4-dihydroquinoline-3-carboxylate]
25 nM | C=Cc1cnn(-c2ccc(Cn3cc(C(=O)OCC)c(=O)c4c(F)cccc43)cc2)c1 [Example 156, Ethyl 5-fluoro-4-oxo-1-[4-(4-vinyl-1H-pyrazol-1-yl)benzyl]-1,4-dihydroquinoline-3-carboxylate]
